The test system of one test is mast cells (MC). The test is described as follows: Toluidine blue count of degranulated mast cells in dorsal skin biopsies of STZ-DM mice. It counts as in vivo. To be noted: STZ-DM C57Bl6 mice, 8-weeks DM, ten days intraperitoneal treatment. On the procedure: The number of intact or non-degranulated and degranulated MC in dorsal skin biopsies from non-DM and STZ-DM C57B16 mice with 8-weeks DM were evaluated by toluidine blue staining. Sections were stained metachromatically with 0.1% toluidine blue, pH 2 (cytoplasmic granules appear purple on a blue background). […] See e.g., J Peripher Nery Syst 2008; 13:218-27, Handbook of clinical neurology 2013; 115:115-36, Immunol Rev 2007; 217:65-78, Proc Natl Acad Sci USA 2006; 103:7759-64, and Nature 1982; 297:229-31. Non-DM and STZ-DM mice were also treated for ten days intraperitoneally with the MC stabilizer disodium cromoglycate (DSCG). […] However, the number of extensively degranulated MC was increased whereas the number of non-degranulated cells was reduced in STZ-DM mice compared to the non-DM controls.

Another test deals with M1 and M2 macrophages. The test is described as follows: M1/M2 macrophage ratio in skin after 10-day intraperitoneal DSCG. Format: in vivo, mice. The conditions noted are these: measured ten days after treatment completion. As to the method: The number of HLA-DR^+/CD68^+ (M1−) and CD206/CD68^+ (M2−) macrophages in the skin of DM patients and non-DM subjects were evaluated by immunofluorescence following previously defined methods. See e.g., J Peripher Nery Syst 2008; 13:218-27, Handbook of clinical neurology 2013; 115:115-36, Immunol Rev 2007; 217:65-78, Proc Natl Acad Sci USA 2006; 103:7759-64, and Nature 1982; 297:229-31. […] The gene expression of M1-associated pro-inflammatory cytokines, such as TNF-α (FIG. 4, panel a) and IL-1β (FIG. 4, panel b), was also elevated in the foot skin of diabetes mellitus patients, whereas the M2-associated anti-inflammatory cytokine IL-10 was reduced (FIG. 4, panel c).
Using the same methods as in the human samples described above, an increased M1/M2 ratio in C57BL/6J STZ-DM mice was observed. […] Both non-DM and STZ-DM KO mice and their normal littermates were tested.
The effect of a 10-day disodium cromoglycate (DSCG) intraperitoneal administration was evaluated in non-DM and STZ-DM C57B16 mice that were also tested for their wound healing capacity.

The subject of test [1] is intraepidermal nerve fibers. The test is described as follows: Intraepidermal nerve fiber density (IENFD) in normal skin adjacent to wounds. Format: in vivo, mice. On the procedure:
In a blinded mode, the IENFD in normal skin areas adjacent to wounds in non-DM and DM not-treated and treated with topical SP application for a 10-day period as described above (FIGS. 13 and 14) was evaluated. […] Similar results were found in preliminary studies that evaluated the effect of MC stabilization with DSCG. More specifically, DSCG treatment in two DM mice tended to have a beneficial effect in IENFD (151±55 fibers/mm) compared to four non-treated DM mice (55±17, p<0.05). Initial observations in TAC1KO mice also indicated reduced IENFD (28±12, n=2 mice) that improved in a similar way as with the previous experiments following SP treatment (41±16, n=2).

The next test deals with 6 mm excisional wounds. In words: Daily topical SP in 6 mm excisional wounds: IL-6 expression and M1/M2 ratio. It counts as in vivo, mice. From the text: Daily topical Substance P (SP) application in 6 mm excisional wounds created at the back of non-DM and STZ-DM mice increased the IL-6 expression and M1/M2 ratio three days after wounding, imitating the acute inflammatory phase of wound healing in acute wounds (FIG. 12). However, at Day-10, SP reduced both these inflammatory factors in STZ-DM mice, which was increased when compared to non-DM mice.

The next test deals with wounds. The test is described as follows: Topical wound SP treatment in MC deficient mice (wound healing). It counts as in vivo. To be noted: compared with WT mice. From the text:
Combined topical treatment with SP and an MC stabilization agent should have an additive, if not synergistic, effect in preventing and reversing SFN.

[2] abbreviates: STZ-DM mice, Day-10, listed as SP.
Where [3] appears, read: non-DM and STZ-DM mice, three days after wounding.
Where [4] appears, read: non-DM and STZ-DM mice, three days after wounding, listed as SP.

Experimental findings from patent publication US20180161388A1, “SUBSTANCE P, MAST CELL DEGRANULATION INHIBITORS, AND PERIPHERAL NEUROPATHY” (Beth Israel Deaconess Medical Center, Inc., priority 2015, published 2018) are described below.

“Also recorded” adds a separate entry of the source. Where no end group is shown, it is not given here.

Turning to `O=C([O-])c1cc(=O)c2c(OCC(O)COc3cccc4oc(C(=O)[O-])cc(=O)c34)cccc2o1.[Na+].[Na+]` [DSCG, disodium cromoglycate], the “number of degranulated MC in skin” value in the test on mast cells (MC) is “effectively reduce the number of degranulated cells”. Besides, the M1/M2 macrophage ratio entry is “drastically reduces it in STZ-DM to normal levels; also recorded: reduced the ratio to levels similar to the non-DM mice; also recorded: reduces the M1/M2 ratio to normal levels” with M1 and M2 macrophages (STZ-DM C57Bl6 mice); “no effect” with M1 and M2 macrophages (non-DM C57Bl6 mice). The same molecule yielded an IENFD in test [1] (DM mice treated with DSCG (two mice), preliminary study, non-treated DM 55±17) of 151±55 fibers/mm.
For “Substance P (RPKPQQFFGLM-NH2; ends and bridges not checked; UniProt P20366 58-68, looked up) [neuropeptide Substance P (SP), acts through the NK1 receptor]”, the “IL-6 expression in wounds” value with 6 mm excisional wounds (setting [2]) is “reduced the chronic inflammation”; with 6 mm excisional wounds (setting [3]), “increased”; in the test on 6 mm excisional wounds (setting [4]), “induced an acute inflammatory response”. Besides, the results for the “M1/M2 ratio in wounds” value in the test with 6 mm excisional wounds (setting [2]), in the test with 6 mm excisional wounds (setting [3]) and in the test with 6 mm excisional wounds (setting [4]) were “reduced the chronic inflammation”, “increased” and “induced an acute inflammatory response”, respectively. The IENFD entry in test [1] (DM mice, topical application for 10 days, periwound normal skin, listed as SP) is “returned to normal levels; also recorded: increased IENFD to levels similar to the non-DM mice”; in test [1] (TAC1KO mice after SP treatment (n=2), initial observations, untreated 28±12), 41±16 fibers/mm; in test [1] (non-DM mice, topical application for 10 days, periwound normal skin, listed as SP), “did not affect IENFD; also recorded: no obvious effect”. For the same molecule, the “effect on wound healing” value in the test with wounds is reported as “lacks the beneficial effects”.
